# According to patent US12686665B2, “Bicyclic fused ring derivative or salt thereof and pharmaceutical composition comprising same” (YUHAN CORPORATION, priority 2021, dated 2026):
# Counter-ions that a name gives are not always drawn.
# Target: T1, recombinant human Lysyl Oxidase-Like 2 (LOXL2) (Homo sapiens, UniProt Q9Y4K0)
# T1 construct: purchased R&D systems
# T1 sequence (Q9Y4K0 26-774): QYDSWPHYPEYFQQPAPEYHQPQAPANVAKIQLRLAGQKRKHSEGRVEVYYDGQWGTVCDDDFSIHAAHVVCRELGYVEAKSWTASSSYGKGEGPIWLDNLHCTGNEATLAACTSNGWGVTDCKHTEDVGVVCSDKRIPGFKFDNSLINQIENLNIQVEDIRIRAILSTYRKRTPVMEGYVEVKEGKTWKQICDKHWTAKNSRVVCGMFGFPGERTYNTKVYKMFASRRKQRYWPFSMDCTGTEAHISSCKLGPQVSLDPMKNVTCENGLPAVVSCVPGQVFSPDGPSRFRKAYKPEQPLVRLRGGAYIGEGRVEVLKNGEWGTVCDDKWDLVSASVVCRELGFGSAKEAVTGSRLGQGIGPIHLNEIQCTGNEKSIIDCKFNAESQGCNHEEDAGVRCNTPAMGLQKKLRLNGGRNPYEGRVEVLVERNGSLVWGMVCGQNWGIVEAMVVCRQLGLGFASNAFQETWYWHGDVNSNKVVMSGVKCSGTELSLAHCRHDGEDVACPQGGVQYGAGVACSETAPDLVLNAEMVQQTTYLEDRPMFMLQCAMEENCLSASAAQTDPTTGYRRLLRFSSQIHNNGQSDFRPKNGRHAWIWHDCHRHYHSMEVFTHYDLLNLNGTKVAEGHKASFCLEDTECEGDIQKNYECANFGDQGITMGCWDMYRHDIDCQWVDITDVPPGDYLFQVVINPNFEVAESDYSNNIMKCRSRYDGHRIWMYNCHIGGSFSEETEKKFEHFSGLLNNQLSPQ
# Assay: Amplex Red HRP-coupled amine oxidase assay, recombinant human LOXL2
# Format: biochemical
# Conditions: 60 min incubation with enzyme at 37° C., putrescine substrate, read-out: Inhibitory activity (IC50, nM) human LOXL2
# Description: The activities of the compounds according to the present invention against recombinant human Lysyl Oxidase-Like 2 (recombinant human LOXL2, R&D systems) were evaluated by measuring the levels of hydrogen peroxide in the HRP (horseradish peroxidase) coupled reactions, with the Amplex Red Hydrogen Peroxide Assay Kit (Molecular Probes, Invitrogen, USA). The tests were carried out at 37° C., and putrescine was used as a substrate. In the HRP coupling reaction, the oxidation of 10-acetyl-3,7-dihydroxyphenoxazine (Amplex Red reagent) by hydrogen peroxide generates a fluorescent product, i.e., resorufin. Briefly, the test compounds were dissolved in dimethyl sulfoxide (DMSO) at a concentration of 20 mM. Dose-response measurements were carried out by serial dilutions in DMSO to generate a six-point curve. The upper concentration was adjusted according to the potency of the compound, and then diluted with the reaction buffer to obtain a final DMSO concentration of 1%. Purified human LOXL2 in 50 mM sodium phosphate buffer (pH7.4) was added to each well of a 96 well black plate. The test compounds dissolved in DMSO were incubated with the human LOXL2 enzyme at 37° C. for 60 minutes. After the incubation for 60 minutes, a reaction mixture containing 400 μM Amplex Red reagent, 30 mM putrescine, and 2 U/mL HRP in 50 mM sodium phosphate buffer (pH 7.4) was added to each well. Fluorescence was measured with a microplate reader (Flexstation3, Molecular Devices), under the conditions of excitation at 530 nm and emission at 590 nm, 1 hour after the addition of the mixture. Inhibition by each compound was measured as % reduction in signal, compared to the control without an inhibitor (diluted DMSO only). The data were fixed to a four-variable logistic model, and […] values were calculated using the GraphPad Prism program.
row,IC50,Compound
1,8 nM,"CNS(=O)(=O)c1ccc(OC)c(-c2cc(C(=O)NOC)cc3c2nnn3C/C(F)=C/CN)c1 [Example 134, (Z)-1-(4-amino-2-fluorobut-2-en-1-yl)-N-methoxy-4-(2-methoxy-5-(N-methylsulfamoyl)phenyl)-1H-benzo[d][1,2,3]triazol-6-carboxamide hydrochloride]"
2,35.6 nM,"CCN(CC)S(=O)(=O)c1ccc(OC)c(-c2cc(C(=O)NOC)cc3c2nnn3C/C(F)=C/CN)c1 [Example 135, (Z)-1-(4-amino-2-fluorobut-2-en-1-yl)-4-(5-(N,N-diethylsulfamoyl)-2-methoxyphenyl)-N-m ethoxy-1H-benzo[d][1,2,3]triazol-6-carboxamide hydrochloride]"
3,6.4 nM,"CONC(=O)c1cc(-c2cc(S(=O)(=O)NC3CC3)ccc2OC)c2nnn(C/C(F)=C/CN)c2c1 [Example 136, (Z)-1-(4-amino-2-fluorobut-2-en-1-yl)-4-(5-(N-cyclopropylsulfamoyl)-2-methoxyphenyl)-N-methoxy-1H-benzo[d][1,2,3]triazol-6-carboxamide hydrochloride]"
4,37 nM,"CON(C)C(=O)c1cc(-c2cccc(S(=O)(=O)N3CCCC3)c2)c2nnn(C/C(F)=C/CN)c2c1 [Example 137, (Z)-1-(4-amino-2-fluorobut-2-en-1-yl)-N-methoxy-N-methyl-4-(3-(pyrrolidin-1-ylsulfonyl)phenyl)-1H-benzo[d][1,2,3]triazol-6-carboxamide hydrochloride]"
5,54.3 nM,"CCN(CC)S(=O)(=O)c1ccc(OC)c(-c2cc(C(=O)N(C)OC)cc3c2nnn3C/C(F)=C/CN)c1 [Example 138, (Z)-1-(4-amino-2-fluorobut-2-en-1-yl)-4-(5-(N,N-diethylsulfamoyl)-2-methoxyphenyl)-N-m ethoxy-N-methyl-1H-benzo[d][1,2,3]triazol-6-carboxamide hydrochloride]"
6,69.6 nM,"CON(C)C(=O)c1cc(-c2cccc(S(=O)(=O)N(C)C)c2)c2nnn(C/C(F)=C/CN)c2c1 [Example 139, (Z)-1-(4-amino-2-fluorobut-2-en-1-yl)-4-(3-(N,N-dimethylsulfamoyl)phenyl)-N-methoxy-N-methyl-1H-benzo[d][1,2,3]triazol-6-carboxamide]"
7,419 nM,"CCn1nccc1-c1cc(C(F)(F)F)cc2c1ncn2C/C(F)=C/CN [Example 177, (Z)-4-(4-(1-ethyl-1H-pyrazol-5-yl)-6-(trifluoromethyl)-1H-benzo[d]imidazol-1-yl]-3-fluoro-but-2-en-1-amine hydrochloride]"
8,463 nM,"CC(C)n1nccc1-c1cc(C(F)(F)F)cc2c1ncn2C/C(F)=C/CN [Example 178, (Z)-3-fluoro-4-(4-(1-isopropyl-1H-pyrazol-5-yl)-6-(trifluoromethyl)-1H-benzo[d]imidazol-1-yl)but-2-en-1-amine hydrochloride]"
9,506 nM,"Cn1nc(C(F)(F)F)cc1-c1cc(C(F)(F)F)cc2c1ncn2C/C(F)=C/CN [Example 179, (Z)-3-fluoro-4-(4-[1-methyl-3-(trifluoromethyl)-1H-pyrazol-5-yl]-6-(trifluoromethyl)-1H-benzo[d]imidazol-1-yl)but-2-en-1-amine hydrochloride]"
10,323 nM,"NC/C=C(\F)Cn1cnc2c(-c3cnn(CCO)c3)cc(C(F)(F)F)cc21 [Example 180, (Z)-2-(4-(1-(4-amino-2-fluorobut-2-en-1-yl)-6-(trifluoromethyl)-1H-benzo[d]imidazol-4-yl)-1H-pyrazol-1-yl)ethan-1-ol hydrochloride]"
11,105 nM,"N#Cc1cc(-c2cc(CO)ccc2F)c2ncn(C/C(F)=C/CN)c2c1 [Example 185, (Z)-1-(4-amino-2-fluorobut-2-en-1-yl)-4-(2-fluoro-5-(hydroxymethyl)phenyl)-1H-benzo[d]imidazol-6-carbonitrile hydrochloride]"
12,109 nM,"N#Cc1cc(-c2cccc(CO)c2Cl)c2ncn(C/C(F)=C/CN)c2c1 [Example 186, (Z)-1-(4-amino-2-fluoro-2-but-1-yl)-4-(2-chloro-3-(hydroxymethyl)phenyl)-1H-benzo[d]imidazol-6-carbonitrile hydrochloride]"
